Data as given in US9884063B2, “Amido-substituted azole compounds” (Bayer Pharma Aktiengesellschaft, priority 2014, dated 2018).

Target: T1, TNKS1 (Homo sapiens, UniProt O95271)
T1 sequence (O95271 1-1327): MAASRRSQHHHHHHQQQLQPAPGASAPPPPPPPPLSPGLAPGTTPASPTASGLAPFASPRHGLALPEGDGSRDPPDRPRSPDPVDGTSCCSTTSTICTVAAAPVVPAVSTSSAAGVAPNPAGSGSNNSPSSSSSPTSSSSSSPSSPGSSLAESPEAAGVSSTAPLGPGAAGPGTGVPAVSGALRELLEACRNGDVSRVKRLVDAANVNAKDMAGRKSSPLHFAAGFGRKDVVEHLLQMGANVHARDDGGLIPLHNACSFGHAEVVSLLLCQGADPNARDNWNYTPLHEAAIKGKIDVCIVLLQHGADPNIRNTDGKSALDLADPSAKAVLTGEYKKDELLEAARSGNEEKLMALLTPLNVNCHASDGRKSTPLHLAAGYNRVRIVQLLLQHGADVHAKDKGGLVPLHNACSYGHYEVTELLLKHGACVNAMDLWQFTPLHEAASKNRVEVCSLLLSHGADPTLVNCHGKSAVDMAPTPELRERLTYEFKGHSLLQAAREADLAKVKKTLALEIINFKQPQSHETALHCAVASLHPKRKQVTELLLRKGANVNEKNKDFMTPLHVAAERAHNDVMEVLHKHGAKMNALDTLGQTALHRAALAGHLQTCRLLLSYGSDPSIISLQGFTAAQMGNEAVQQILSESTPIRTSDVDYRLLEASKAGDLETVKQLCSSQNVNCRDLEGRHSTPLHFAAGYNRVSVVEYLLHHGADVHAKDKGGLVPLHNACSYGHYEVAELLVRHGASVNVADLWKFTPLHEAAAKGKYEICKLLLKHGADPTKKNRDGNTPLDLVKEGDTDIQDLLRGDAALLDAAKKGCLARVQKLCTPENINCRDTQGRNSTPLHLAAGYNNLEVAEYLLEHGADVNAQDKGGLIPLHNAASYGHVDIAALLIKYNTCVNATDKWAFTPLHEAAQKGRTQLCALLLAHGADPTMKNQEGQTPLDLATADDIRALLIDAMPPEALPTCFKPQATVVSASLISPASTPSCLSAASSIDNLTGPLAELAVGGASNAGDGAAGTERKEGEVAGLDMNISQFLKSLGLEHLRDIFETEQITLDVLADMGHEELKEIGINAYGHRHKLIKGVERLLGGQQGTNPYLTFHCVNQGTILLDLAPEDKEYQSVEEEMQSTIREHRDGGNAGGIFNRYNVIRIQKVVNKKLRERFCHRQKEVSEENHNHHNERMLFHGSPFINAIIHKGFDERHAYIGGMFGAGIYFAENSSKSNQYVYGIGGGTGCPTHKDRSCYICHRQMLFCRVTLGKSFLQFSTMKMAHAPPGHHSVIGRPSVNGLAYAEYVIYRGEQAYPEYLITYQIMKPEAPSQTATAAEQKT
Experiment: Modified TNKS1 Assay 2 (auto-parsylation, [3H]-NAD+ SPA)
Assay type: biochemical
Conditions: 6 nM TNKS1, 96 well
Protocol: The potency of selected compounds according to the invention was assessed applying an modified in vitro inhibition assay. Here, the TNKS1 catalyzed NAD^+-dependent ribosylation of the enzyme itself (auto-parsylation) was detected using [^3H]-NAD^+ as substrate and applying the scintillation proximity assay (SPA) method to detect tritium-labeled, parsylated TNKS1. The intensity of the readout signal is proportional to the incorporated [^3H]-NAD^+. Inhibition of TNKS1 leads to a decreased incorporation of [^3H]-NAD^+ and consequently to a lower readout signal intensity. The concentration of a test compound which inhibits the enzyme activity by 50% (corresponds to half of the normed readout signal intensity) is reported as IC50.
The assay was conducted in a 96 well MTP format with the identical TNKS1 enzyme sample and NAD^+ sample as in the histone ribosylation assay with the following modifications: TNKS1 enzyme sample was diluted with a modified assay buffer (50 mM MES pH 7.0, 1 mM DTT, 0.01% Triton X-100) to a final concentration of 6 nM TNKS1 and 10×NAD^+ solution was diluted with the modified assay buffer (s. above) to a final 0.445×NAD^+ solution doped with 100 Bq/ul [^3H]-NAD^+[Catalog #NET443H050UC, Perkin Elmer, Waltham, Mass., USA]. Substrate solution (10 ul) was incubated with different test compound concentrations (2.5 ul in 10% DMSO in modified assay buffer) or control (2.5 ul 10% DMSO in modified assay buffer only) and enzyme (10 ul) over night at room temperature. Incorporated tritium was measured after addition of 50 ul SPA beads (1 mg/ml) [Catalog #RPNQ0095 20 mg/ml, Perkin Elmer, Waltham, Mass., USA; diluted 1:10 with Dulbecco's phosphate buffered saline, PBS Catalog #D8537, Sigma-Aldrich, Steinheim, Germany] and detection of the photon emission with a beta count plate reader [Wallac MicroBeta®, Perkin Elmer, Waltham, Mass., USA].

Row | IC50 | SMILES
1 | 2600 nM | CN(C)C(=O)c1nc[nH]c1C(=O)Nc1ccc(NC(=O)c2ccc(F)cc2Cl)cc1 [Example 24, N^5-{4-[(2-chloro-4-fluorobenzoyl)amino]phenyl}-N^4,N^4-dimethyl-1H-imidazole-4,5-dicarboxamide]
2 | > 10000 nM | CNC(=O)c1nc[nH]c1C(=O)Nc1ccc(NC(=O)c2cc(OCCN3CCCCC3)ccc2Cl)cc1 [Example 125, N^5-[4-({2-chloro-5-[2-(piperidin-1-yl)ethoxy]benzoyl}amino)phenyl]-N^4-methyl-1H-imidazole-4,5-dicarboxamide]
3 | 20 nM | CNC(=O)c1nc[nH]c1C(=O)Nc1ccc(NC(=O)c2cc(F)c(F)cc2Cl)cc1 [Example 242, N^5-{4-[(2-chloro-4,5-difluorobenzoyl)amino]phenyl}-N^4-methyl-1H-imidazole-4,5-dicarboxamide]
4 | 60 nM | CNC(=O)c1nc[nH]c1C(=O)Nc1ccc(NC(=O)c2ccc(OCCN3CCN(C)CC3)cc2Cl)cc1 [Example 28, N^5-[4-({2-chloro-4-[2-(4-methylpiperazin-1-yl)ethoxy]benzoyl}amino)phenyl]-N^4-methyl-1H-imidazole-4,5-dicarboxamide]
5 | 60 nM | CC1CCN(CC(C)(C)NC(=O)c2[nH]cnc2C(=O)Nc2ccc(NC(=O)c3ccc(F)cc3Cl)cc2)CC1 [Example 155, N^4-{4-[(2-chloro-4-fluorobenzoyl)amino]phenyl}-N^5-[2-methyl-1-(4-methylpiperidin-1-yl)propan-2-yl]-1H-imidazole-4,5-dicarboxamide]
6 | 30 nM | COCCNC(=O)c1[nH]cnc1C(=O)Nc1ccc(NC(=O)c2ccc(F)cc2Cl)cc1 [Example 130, N^4-{4-[(2-chloro-4-fluorobenzoyl)amino]phenyl}-N^5-(2-methoxyethyl)-1H-imidazole-4,5-dicarboxamide]
7 | 50 nM | CN1CCN(C(C)(C)CNC(=O)c2[nH]cnc2C(=O)Nc2ccc(NC(=O)c3ccc(F)cc3Cl)cc2)CC1 [Example 187, N^4-{4-[(2-chloro-4-fluorobenzoyl)amino]phenyl}-N^5-[2-methyl-2-(4-methylpiperazin-1-yl)propyl]-1H-imidazole-4,5-dicarboxamide]
8 | 1700 nM | CNC(=O)c1nc[nH]c1C(=O)Nc1ccc(NC(=O)c2c(Cl)cccc2Cl)cc1 [Example 26, N^5-{4-[(2,6-dichlorobenzoyl)amino]phenyl}-N^4-methyl-1H-imidazole-4,5-dicarboxamide]
9 | 9300 nM | CNC(=O)c1nc[nH]c1C(=O)Nc1ccc(NC(=O)c2cccc(OC)c2Cl)cc1 [Example 252, N^5-{4-[(2-chloro-3-methoxybenzoyl)amino]phenyl}-N^4-methyl-1H-imidazole-4,5-dicarboxamide]
10 | 220 nM | O=C(Nc1ccc(NC(=O)c2nc[nH]c2C(=O)NCCCCN2CCCCC2)cc1)c1ccccc1Cl [Example 189, N^4-{4-[(2-chlorobenzoyl)amino]phenyl}-N^5-[4-(piperidin-1-yl)butyl]-1H-imidazole-4,5-dicarboxamide]
11 | 10 nM | CC1CCN(CCNC(=O)c2nc[nH]c2C(=O)Nc2ccc(NC(=O)c3ccc(F)cc3Cl)cc2)CC1 [Example 126, N^5-{4-[(2-chloro-4-fluorobenzoyl)amino]phenyl}-N^4-[2-(4-methylpiperidin-1-yl)ethyl]-1H-imidazole-4,5-dicarboxamide]
12 | > 10000 nM | CNC(=O)c1nc[nH]c1C(=O)Nc1ccc(NC(=O)c2ccc(OC(F)F)cc2F)cc1 [Example 251, N^5-(4-{[4-(difluoromethoxy)-2-fluorobenzoyl]amino}phenyl)-N^4-methyl-1H-imidazole-4,5-dicarboxamide]
13 | 4000 nM | CC(C)(CN1CCOCC1)NC(=O)c1[nH]cnc1C(=O)Nc1ccc(NC(=O)c2ccc(F)cc2)cc1 [Example 180, N^4-{4-[(4-fluorobenzoyl)amino]phenyl}-N^5-[2-methyl-1-(morpholin-4-yl)propan-2-yl]-1H-imidazole-4,5-dicarboxamide]
14 | 40 nM | NC(=O)c1nc[nH]c1C(=O)Nc1ccc(NC(=O)c2ccc(F)cc2Cl)cc1 [Example 121]
15 | 1800 nM | CNC(=O)c1nc[nH]c1C(=O)Nc1ccc(NC(=O)c2ccccc2C)cc1 [Example 19, N^4-methyl-N^5-{4-[(2-methylbenzoyl)amino]phenyl}-1H-imidazole-4,5-dicarboxamide]
16 | 30 nM | O=C(Nc1ccc(NC(=O)c2nc[nH]c2C(=O)NC2CCOC2)cc1)c1ccc(F)cc1Cl (stereo not drawn) [Example 236, N^4-{4-[(2-chloro-4-fluorobenzoyl)amino]phenyl}-N^5-(tetrahydrofuran-3-yl)-1H-imidazole-4,5-dicarboxamide]
17 | 4100 nM | O=C(Nc1ccc(NC(=O)c2nc[nH]c2C(=O)NCCCN2CCOCC2)cc1)c1ccc(F)cc1 [Example 206, N^4-{4-[(4-fluorobenzoyl)amino]phenyl}-N^5-[3-(morpholin-4-yl)propyl]-1H-imidazole-4,5-dicarboxamide]
18 | 30 nM | CNC(=O)c1nc[nH]c1C(=O)Nc1ccc(NC(=O)c2ccc(F)cc2Cl)nc1 [Example 16, N^5-{6-[(2-chloro-4-fluorobenzoyl)amino]pyridin-3-yl}-N^4-methyl-1H-imidazole-4,5-dicarboxamide]
19 | 910 nM | CNC(=O)c1nc[nH]c1C(=O)Nc1ccc(NC(=O)c2ncccc2Cl)cc1 [Example 247, N^5-(4-{[(3-chloropyridin-2-yl)carbonyl]amino}phenyl)-N^4-methyl-1H-imidazole-4,5-dicarboxamide]
20 | 230 nM | CCOc1ccc(C(=O)Nc2ccc(NC(=O)c3[nH]cnc3C(=O)NC)cc2)c(Cl)c1 [Example 250, N^5-{4-[(2-chloro-4-ethoxybenzoyl)amino]phenyl}-N^4-methyl-1H-imidazole-4,5-dicarboxamide]
21 | 10 nM | CC(CNC(=O)c1[nH]cnc1C(=O)Nc1ccc(NC(=O)c2ccccc2Cl)cc1)N1CCCCC1 (stereo not drawn) [Example 182, N^4-{4-[(2-chlorobenzoyl)amino]phenyl}-N^5-[2-(piperidin-1-yl)propyl]-1H-imidazole-4,5-dicarboxamide]
22 | 90 nM | CC1CCCCN1CCNC(=O)c1[nH]cnc1C(=O)Nc1ccc(NC(=O)c2ccc(F)cc2)cc1 (stereo not drawn) [Example 169, N^4-{4-[(4-fluorobenzoyl)amino]phenyl}-N^5-[2-(2-methylpiperidin-1-yl)ethyl]-1H-imidazole-4,5-dicarboxamide]
23 | 7800 nM | CCNC(=O)c1nc[nH]c1C(=O)Nc1ccc(NC(=O)c2ccccc2S(C)(=O)=O)cc1 [Example 257, N^4-ethyl-N^5-(4-{[2-(methylsulfonyl)benzoyl]amino}phenyl)-1H-imidazole-4,5-dicarboxamide]
24 | 300 nM | CCNC(=O)c1nc[nH]c1C(=O)Nc1ccc(NC(=O)c2ccc(OCC)cc2Cl)cc1 [Example 259, N^5-{4-[(2-chloro-4-ethoxybenzoyl)amino]phenyl}-N^4-ethyl-1H-imidazole-4,5-dicarboxamide]
